From patent publication US20160287589A1, “SUBSTITUTED-IMIDAZOPYRIDAZINES” (BAYER PHARMA AKTIENGESELLSCHAFT, priority 2013, published 2016)

Legend:
MKNK1 [1] = molecular target: T1, MKNK1 (Homo sapiens, UniProt Q9BUB5, T385D); experiment: MKNK1 kinase assay (MKNK1 TR-FRET assay); format: biochemical; details: 10 μM ATP, 15 min preincubation
T1 construct: GST (N); purchased Carna Biosciences 02-145; host or cells: insect cells (baculovirus expression system)
Text: MKNK1-inhibitory activity of compounds of the present invention was quantified employing the MKNK1 TR-FRET assay as described in the following paragraphs.
(§1) A recombinant fusion protein of Glutathione-S-Transferase (GST, N-terminally) and human full-lengt MKNK1 (amino acids 1-424 and T344D of accession number BAA 19885.1), expressed in insect cells using baculovirus expression system and purified via glutathione sepharose affinity chromatography, was purchased from Carna Biosciences (product no 02-145) and used as enzyme. As substrate for the kinase reaction the biotinylated peptide biotin-Ahx-IKKRKLTRRKSLKG (C-terminus in amide form) was used which can be purchased e.g. form the company Biosyntan (Berlin-Buch, Germany).
For the assay 50 nL of a 100 fold concentrated solution of the test compound in DMSO was pipetted into a black low volume 384 well microtiter plate (Greiner Bio-One, Frickenhausen, Germany), 2 μL of a solution of MKNK1 in aqueous assay buffer [50 mM HEPES pH 7.5, 5 mM magnesium chloride, 1.0 mM dithiothreitol, 0.005% (v/v) Nonidet-P40 (Sigma)] was added and the mixture was incubated for 15 min at 22° C. to allow pre-binding of the test compounds to the enzyme before the start of the kinase reaction. […] The concentration of MKNK1 was adjusted depending of the activity of the enzyme lot and was chosen appropriate to have the assay in the linear range, typical concentrations were in the range of […]. The reaction was stopped by the addition of 5 μL of a solution of TR-FRET detection reagents (5 nM streptavidine-XL665 [Cisbio Bioassays, Codolet, France] and 1 nM anti-ribosomal protein S6 (pSer236)-antibody from Invitrogen [#44921G] and 1 nM LANCE EU-W1024 labeled ProteinG [Perkin-Elmer, product no. AD0071]) in an aqueous EDTA-solution (100 mM EDTA, 0.1% (w/v) bovine serum albumin in 50 mM HEPES pH 7.5).
(§2) The resulting mixture was incubated for 1 h at 22° C. to allow the formation of complex between the phosphorylated biotinylated peptide and the detection reagents. Subsequently the amount of phosphorylated substrate was evaluated by measurement of the resonance energy transfer from the Eu-chelate to the streptavidine-XL. Therefore, the fluorescence emissions at 620 nm and 665 nm after excitation at 350 nm were measured in a TR-FRET reader, e.g. a Rubystar (BMG Labtechnologies, Offenburg, Germany) or a Viewlux (Perkin-Elmer). The ratio of the emissions at 665 nm and at […] was taken as the measure for the amount of phosphorylated substrate. The data were normalised (enzyme reaction without inhibitor=0% inhibition, all other assay components but no enzyme=100% inhibition).

MKNK1 [2] = molecular target: T1, MKNK1; experiment: MKNK1 kinase high ATP assay (TR-FRET-based); format: biochemical; details: 2 mM ATP, 15 min preincubation
Procedure: MKNK1 Kinase High ATP Assay
MKNK1-inhibitory activity at high ATP of compounds of the present invention after their preincubation with MKNK1 was quantified employing the TR-FRET-based MKNK1 high ATP assay as described in the following paragraphs.
as §1, with “human full-length” for “human full-lengt”, “was used,” for “was used”, “e.g. from” for “e.g. form”
For the assay 50 nL of a 100 fold concentrated solution of the test compound in DMSO was pipetted into a black low volume 384 well microtiter plate (Greiner Bio-One, Frickenhausen, Germany), 2 μL of a solution of MKNK1 in aqueous assay buffer [50 mM HEPES pH 7.5, 5 mM magnesium chloride, 1.0 mM dithiothreitol, 0.005% (v/v) Nonidet-P40 (Sigma)] was added and the mixture was incubated for 15 min at 22° C. to allow pre-binding of the test compounds to the enzyme before the start of the kinase reaction. Then the kinase reaction was started by the addition of 3 μL of a solution of adenosine-tri-phosphate (ATP, 3.3 mM=>final conc. in the 5 μL assay volume is 2 mM) and substrate (0.1 μM=>final conc. in the 5 μL assay volume is 0.06 μM) in assay buffer and the resulting mixture was incubated for a reaction time of 30 min at 22° C. The concentration of MKNK1 was adjusted depending of the activity of the enzyme lot and was chosen appropriate to have the assay in the linear range, typical concentrations were in the range of 0.003 μg/mL. The reaction was stopped by the addition of 5 μL of a solution of TR-FRET detection reagents (5 nM streptavidine-XL665 [Cisbio Bioassays, Codolet, France] and 1 nM anti-ribosomal protein S6 (pSer236)-antibody from Invitrogen [#44921G] and 1 nM LANCE EU-W1024 labeled ProteinG [Perkin-Elmer, product no. AD0071]) in an aqueous EDTA-solution (100 mM EDTA, 0.1% (w/v) bovine serum albumin in 50 mM HEPES pH 7.5).
as §2

T1 sequence (Q9BUB5 1-424 isoform Q9BUB5-2 T344D): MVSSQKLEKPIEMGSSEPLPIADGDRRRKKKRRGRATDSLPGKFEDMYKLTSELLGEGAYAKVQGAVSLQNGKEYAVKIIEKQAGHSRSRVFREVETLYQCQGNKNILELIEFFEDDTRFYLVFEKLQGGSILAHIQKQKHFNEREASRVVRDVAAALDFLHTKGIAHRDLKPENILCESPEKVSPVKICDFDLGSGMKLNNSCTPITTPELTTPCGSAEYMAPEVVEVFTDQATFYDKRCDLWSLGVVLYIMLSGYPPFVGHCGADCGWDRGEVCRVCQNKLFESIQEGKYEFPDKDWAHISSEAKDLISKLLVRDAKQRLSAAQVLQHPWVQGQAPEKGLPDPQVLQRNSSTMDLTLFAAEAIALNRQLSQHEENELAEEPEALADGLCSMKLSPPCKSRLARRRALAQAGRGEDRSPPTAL

IC50 (MKNK1 [1]; Table 1a) [nM]	IC50 (MKNK1 [2]; Table 2a) [nM]	SMILES	further results
1	2.3	O=C(C1CC1)N1CCC[C@H]1CCOc1ccc2ncc(-c3cc4ccccc4o3)n2n1 [Example I-1, [(2S)-2-(2-{[3-(1-Benzofuran-2-yl)imidazo[1,2-b]pyridazin-6-yl]oxy}ethyl)-pyrrolidin-1-yl](cyclopropyl)methanone]	–
1.8	3.1	CC(=O)N1CCC[C@H]1CCOc1ccc2ncc(-c3cc4ccccc4o3)n2n1 [Example I-2, 1-[(2S)-2-(2-{[3-(1-Benzofuran-2-yl)imidazo[1,2-b]pyridazin-6-yl]oxy}ethyl)-pyrrolidin-1-yl]ethanone]	–
5.3	8.9	O=C(N[C@H]1C[C@H](Oc2ccc3ncc(-c4cc5ccccc5o4)n3n2)C1)C1CC1 [Example I-5, N-(trans-3-{[3-(1-Benzofuran-2-yl)imidazo[1,2-b]pyridazin-6-yl]oxy}cyclobutyl)-cyclopropanecarboxamide]	–
3.4	9.2	CC(C)(C)CC(=O)N1CCC[C@H]1CCOc1ccc2ncc(-c3cc4ccccc4o3)n2n1 [Example I-6, 1-[(2S)-2-(2-{[3-(1-Benzofuran-2-yl)imidazo[1,2-b]pyridazin-6-yl]oxy}ethyl)-pyrrolidin-1-yl]-3,3-dimethylbutan-1-one]	–
5.2	9.3	O=C1CCCC(COc2ccc3ncc(-c4cc5ccccc5o4)n3n2)N1 (stereo not drawn) [Example I-8, 6-({[3-(1-Benzofuran-2-yl)imidazo[1,2-b]pyridazin-6-yl]oxy}methyl)piperidin-2-one]	–
3.3	9.6	O=C1CC[C@H](COc2ccc3ncc(-c4cc5ccccc5o4)n3n2)N1 [Example I-9, (5R)-5-({[3-(1-Benzofuran-2-yl)imidazo[1,2-b]pyridazin-6-yl]oxy}methyl)-pyrrolidin-2-one]	–
3.2	9.9	COC(=O)N1CCC[C@H]1CCOc1ccc2ncc(-c3cc4ccccc4o3)n2n1 [Example I-10, Methyl (2S)-2-(2-{[3-(1-benzofuran-2-yl)imidazo[1,2-b]pyridazin-6-yl]oxy}-ethyl)pyrrolidine-1-carboxylate]	–
5.6	12.5	O=C(NCCOc1ccc2ncc(-c3cc4ccccc4o3)n2n1)C1CC1 [Example I-15, N-(2-{[3-(1-Benzofuran-2-yl)imidazo[1,2-b]pyridazin-6-yl]oxy}ethyl)-cyclopropanecarboxamide]	–

Second part, the compound before the results:

SMILES	IC50 (MKNK1 [1]; Table 1a) [nM]	IC50 (MKNK1 [2]; Table 2a) [nM]	further results
COC[C@H]1CCCN1c1cccc2oc(-c3cnc4ccc(OCCCS(C)(=O)=NC#N)nn34)cc12 (mixture of isomers) [II-25, [{3-[(3-{4-[2-(Methoxymethyl)pyrrolidin-1-yl]-1-benzofuran-2-yl}imidazo-[1,2-b]pyridazin-6-yl)oxy]propyl}(methyl)oxido-λ^6-sulfanylidene]cyanamide]	–	–	IC50 (MKNK1 [1]; Table 1b): 2.4 nM; IC50 (MKNK1 [2]; Table 2b): 2.7 nM
c1cc2oc(-c3cnc4ccc(OC[C@H]5CCCCN5)nn34)cc2c(N2CCOCC2)n1 (stereo in doubt) [III-140, 3-[4-(morpholin-4-yl)furo[3,2-c]pyridin-2-yl]-6-(piperidin-2-ylmeth-oxy)imidazo[1,2-b]pyridazine]	–	–	IC50 (MKNK1 [1]; Table 1c): 80 nM; IC50 (MKNK1 [2]; Table 2c): 183 nM
O=C1NC(COc2ccc3ncc(-c4cc5ccccc5o4)n3n2)CO1 (stereo not drawn) [Example I-4, 4-({[3-(1-Benzofuran-2-yl)imidazo[1,2-b]pyridazin-6-yl]oxy}methyl)-1,3-oxazolidin-2-one]	5.6	8.8	–
O=C1CC[C@@H](COc2ccc3ncc(-c4cc5ccccc5o4)n3n2)N1 [Example I-7, (5S)-5-({[3-(1-Benzofuran-2-yl)imidazo[1,2-b]pyridazin-6-yl]oxy}methyl)-pyrrolidin-2-one]	3.1	9.2	–
CC(=O)N[C@H]1C[C@H](Oc2ccc3ncc(-c4cc5ccccc5o4)n3n2)C1 [Example I-11, N-(trans-3-{[3-(1-Benzofuran-2-yl)imidazo[1,2-b]pyridazin-6-yl]oxy}cyclobutyl)-acetamide]	2.9	10	–
COc1cccc2oc(-c3cnc4ccc(OCCN5CCNC5=O)nn34)cc12 [Example I-12, 1-(2-{[3-(4-methoxy-1-benzofuran-2-yl)imidazo[1,2-b]pyridazin-6-yl]oxy}ethyl)-imidazolidin-2-one]	3.5	10.2	–
COc1ccc2oc(-c3cnc4ccc(OC[C@@H]5CCC(=O)N5)nn34)cc2c1 [Example I-13, (5S)-5-({[3-(5-methoxy-1-benzofuran-2-yl)imidazo[1,2-b]pyridazin-6-yl]oxy}methyl)pyrrolidin-2-one]	3.7	10.7	–
CC(C)(C)CC(=O)N1CCOC(COc2ccc3ncc(-c4cc5ccccc5o4)n3n2)C1 (stereo not drawn) [Example I-14, 1-[2-({[3-(1-Benzofuran-2-yl)imidazo[1,2-b]pyridazin-6-yl]oxy}methyl)-morpholin-4-yl]-3,3-dimethylbutan-1-one]	5.1	10.9	–
O=C(c1ccccc1)N1CCOC(COc2ccc3ncc(-c4cc5ccccc5o4)n3n2)C1 (stereo not drawn) [Example I-16, [2-({[3-(1-benzofuran-2-yl)imidazo[1,2-b]pyridazin-6-yl]oxy}methyl)morpholin-4-yl](phenyl)methanone]	4.7	13.3	–
CC(C)(C)CC(=O)NCCOc1ccc2ncc(-c3cc4ccccc4o3)n2n1 [Example I-17, N-(2-{[3-(1-Benzofuran-2-yl)imidazo[1,2-b]pyridazin-6-yl]oxy}ethyl)-3,3-dimethylbutanamide]	4.6	13.7	–
C[C@@H]1CNCCN1c1cccc2oc(-c3cnc4ccc(OC[C@@H]5CCC(=O)N5)nn34)cc12 [II-62, (5S)-5-{[(3-{4-[(2R)-2-methylpiperazin-1-yl]-1-benzofuran-2-yl}imidazo[1,2-b]pyridazin-6-yl)oxy]methyl}pyrrolidin-2-one]	–	–	IC50 (MKNK1 [1]; Table 1b): 5.1 nM
C[C@@H]1CNCCN1c1cccc2oc(-c3cnc4ccc(OCC(F)(F)F)nn34)cc12 [II-64, 3-{4-[(2R)-2-methylpiperazin-1-yl]-1-benzofuran-2-yl}-6-(2,2,2-trifluoroethoxy)im-idazo[1,2-b]pyridazine]	–	–	IC50 (MKNK1 [1]; Table 1b): 9.3 nM
CC1(C)CN(c2cccc3oc(-c4cnc5ccc(O[C@H]6C[C@H](N)C6)nn45)cc23)CCO1 [II-66, trans-3-({3-[4-(2,2-dimethylmorpholin-4-yl)-1-benzofuran-2-yl]imidazo[1,2-b]pyridazin-6-yl}oxy)cyclobutanamine]	–	–	IC50 (MKNK1 [1]; Table 1b): 27.3 nM
